This passage reports Ki and IC50 results from patent US7087642B2 (priority 1999, dated 2006).

The target of one assay is IMPDH human type II (Homo sapiens, UniProt P12268). The assay is described as follows: biochemical. The following applies: read-out: Ki.
The subject of another assay is human PBMC T cells. The assay is described as follows: cells. Format: cell-based. To be noted: read-out: T-cells (IC50).
Another assay relates to human PBMC B cells. The experiment in a line: cells. The following applies: read-out: B-cells (IC50). The assay is classed as cell-based.

Read-outs that look alike come from different tables or passages of the source.

For the molecule `COc1cc(NC(=O)Nc2cccc(CNC(=O)OCCC#N)c2)ccc1-c1cnco1` [Compound 1], the Ki at IMPDH human type II was less than 10 nM. Besides, the concentration for half-maximal inhibition (IC50) in the assay with human PBMC T cells (Homo sapiens, 72 h) is 100 to 1000 nM; in the assay on human PBMC B cells (Homo sapiens, 72 h), less than 100 nM.

Take `COc1cc(NC(=O)Nc2cccc(CNC(=O)OCCOCCC#N)c2)ccc1-c1cnco1` [Compound 2]: the Ki at IMPDH human type II is less than 10 nM. Further, the concentration for half-maximal inhibition (IC50) in the assay with human PBMC T cells (Homo sapiens, 72 h) fell in the range of 100 to 1000 nM; in the assay with human PBMC B cells (Homo sapiens, 72 h), 100 to 1000 nM.

In the case of `COc1cc(NC(=O)Nc2cccc(CNC(=O)OCCN(C)CCC#N)c2)ccc1-c1cnco1` [Compound 3], the inhibitory constant (Ki) on IMPDH human type II is less than 10 nM. Also, the IC50 in the assay on human PBMC T cells (Homo sapiens, 72 h) fell in the range of 100 to 1000 nM; in the assay with human PBMC B cells (Homo sapiens, 72 h), 100 to 1000 nM.

Consider `COc1cc(NC(=O)Nc2cccc(CNC(=O)OCC(OCc3ccco3)N(CCC#N)CC(C)C)c2)ccc1-c1cnco1` (stereo not shown) [Compound 4], for which the Ki on IMPDH human type II is less than 10 nM. The IC50 in the assay with human PBMC T cells (Homo sapiens, 72 h) was more than 1000 nM; in the assay with human PBMC B cells (Homo sapiens, 72 h) it was more than 1000 nM.

As for `COc1cc(NC(=O)Nc2cccc(CNC(=O)OC[C@@H](N)CC#N)c2)ccc1-c1cnco1` [Compound 5], the Ki on IMPDH human type II was less than 10 nM. Moreover, the IC50 is more than 1000 nM in the assay on human PBMC T cells (Homo sapiens, 72 h) and more than 1000 nM with human PBMC B cells (Homo sapiens, 72 h).

With `COc1cc(NC(=O)Nc2cccc(CNC(=O)OC[C@H](CC#N)N(C)C)c2)ccc1-c1cnco1` [Compound 6], on IMPDH human type II, the inhibition constant Ki is less than 10 nM. For the same molecule, the concentration for half-maximal inhibition (IC50) with human PBMC T cells (Homo sapiens, 72 h) fell in the range of 100 to 1000 nM; in the assay on human PBMC B cells (Homo sapiens, 72 h), 100 to 1000 nM.

As for `COc1cc(NC(=O)Nc2cccc(CNC(=O)OCC(C)(C)CCC#N)c2)ccc1-c1cnco1` [Compound 7], the Ki at IMPDH human type II is less than 10 nM. Also, the half-maximal inhibitory concentration (IC50) was in the range of 100 to 1000 nM in the assay on human PBMC T cells (Homo sapiens, 72 h) and 100 to 1000 nM with human PBMC B cells (Homo sapiens, 72 h).

`CCC(CCC#N)COC(=O)NCc1cccc(NC(=O)Nc2ccc(-c3cnco3)c(OC)c2)c1` (stereo not shown) [Compound 8]: the Ki on IMPDH human type II was less than 10 nM. Besides, the IC50 in the assay with human PBMC T cells (Homo sapiens, 72 h) is 100 to 1000 nM; in the assay with human PBMC B cells (Homo sapiens, 72 h) it was 100 to 1000 nM.

Regarding `COc1cc(NC(=O)Nc2cccc(CNC(=O)OC[C@H](N)CC#N)c2)ccc1-c1cnco1` [Compound 9], the Ki at IMPDH human type II is less than 10 nM. Also, the IC50 lay in the range of 100 to 1000 nM in the assay on human PBMC T cells (Homo sapiens, 72 h) and 100 to 1000 nM in the assay with human PBMC B cells (Homo sapiens, 72 h).

For `COc1cc(NC(=O)Nc2cccc(CNC(=O)OC[C@H](CC#N)NC(=O)CC(C)(C)C)c2)ccc1-c1cnco1` [Compound 10], the Ki on IMPDH human type II was less than 10 nM. Further, the IC50 with human PBMC T cells (Homo sapiens, 72 h) is 100 to 1000 nM; with human PBMC B cells (Homo sapiens, 72 h), more than 1000 nM.

Take `COc1cc(NC(=O)Nc2cccc(CNC(=O)OC(COC(C)C)CN(CCC#N)CC(C)C)c2)ccc1-c1cnco1` (stereo not shown) [Compound 11]: the inhibition constant Ki on IMPDH human type II is less than 10 nM. Moreover, the IC50 in the assay on human PBMC T cells (Homo sapiens, 72 h) is more than 1000 nM; in the assay on human PBMC B cells (Homo sapiens, 72 h), 100 to 1000 nM.

Consider `COc1cc(NC(=O)Nc2cccc(CNC(=O)OC[C@@H](CC#N)NC(=O)OC(C)(C)C)c2)ccc1-c1cnco1` [Compound 12], for which, on IMPDH human type II, the inhibitory constant (Ki) was less than 10 nM. In addition, the concentration for half-maximal inhibition (IC50) lay in the range of 100 to 1000 nM in the assay with human PBMC T cells (Homo sapiens, 72 h) and 100 to 1000 nM in the assay with human PBMC B cells (Homo sapiens, 72 h).

Take `COc1cc(NC(=O)Nc2cccc(CNC(=O)OC(CC#N)CC#N)c2)ccc1-c1cnco1` [Compound 13]: at IMPDH human type II, the inhibitory constant (Ki) was less than 10 nM. For the same molecule, the IC50 in the assay on human PBMC T cells (Homo sapiens, 72 h) was 100 to 1000 nM; in the assay with human PBMC B cells (Homo sapiens, 72 h), 100 to 1000 nM.

As for `COc1cc(NC(=O)Nc2cccc(CNC(=O)OCCN(CCC#N)CCC#N)c2)ccc1-c1cnco1` [Compound 14], the Ki at IMPDH human type II is less than 10 nM. The 50% inhibitory concentration (IC50) was more than 1000 nM in the assay with human PBMC T cells (Homo sapiens, 72 h) and 100 to 1000 nM in the assay on human PBMC B cells (Homo sapiens, 72 h).

With `COc1cc(NC(=O)Nc2cccc(CNC(=O)OC[C@@H](CC#N)N(C)C)c2)ccc1-c1cnco1` [Compound 15], at IMPDH human type II, the Ki is less than 10 nM. For the same molecule, the IC50 with human PBMC T cells (Homo sapiens, 72 h) was in the range of 100 to 1000 nM; with human PBMC B cells (Homo sapiens, 72 h), 100 to 1000 nM.

Regarding `CCN(CC)C[C@@H](CC#N)OC(=O)NCc1cccc(NC(=O)Nc2ccc(-c3cnco3)c(OC)c2)c1` [Compound 16], the Ki on IMPDH human type II was less than 10 nM. The 50% inhibitory concentration (IC50) with human PBMC T cells and in the assay with human PBMC B cells was more than 1000 nM in each case.

Turning to `CCC(CC#N)OC(=O)N[C@@H](C)c1cccc(NC(=O)Nc2ccc(C#N)c(Cl)c2)c1` (stereo partly shown) [Compound 183], the IC50 is 100 to 1000 nM in the assay on human PBMC T cells (Homo sapiens, 72 h) and 100 to 1000 nM in the assay on human PBMC B cells (Homo sapiens, 72 h).

In the case of `COc1cc(NC(=O)Nc2cccc([C@H](C)NC(=O)OC3CCOC3)c2)ccc1C#N` (stereo partly shown) [Compound 184], the concentration for half-maximal inhibition (IC50) in the assay with human PBMC T cells (Homo sapiens, 72 h) is 100 to 1000 nM; in the assay on human PBMC B cells (Homo sapiens, 72 h), 100 to 1000 nM.
